Where only a bound is given, the exact number is not on record here.

As a reminder, the melting point is the temperature of the solid-liquid transition. `CCC(C)(C)c1ccc(Oc2cc(NC(=O)Nc3ccc(C#N)cc3)c(O)cc2[N+](=O)[O-])c(C(C)(C)CC)c1`: the melting point is 212 to 215 °C.

For `CC(C)(C)c1ccc(C(=O)c2ccc(C(C)(C)C)cc2)cc1`, the melting point was 132 to 136 °C.

`CCc1ccc(C2=NC(C)(C(C)C)C(=O)N2CC(=O)O)nc1` (configuration not stated) gave a melting point of 134 to 136 °C.

Take `CC(=O)Nc1cc(N)c(Cl)cc1NC(C)=O`: the melting point stood at 237 °C.

Compound `Cc1cccc(C)c1-n1c(C)c(C#N)c(=O)[nH]c1=O` came in with a melting point of 302 to 303 °C.

`O=C(NCCC(F)=C(F)F)C(=O)NCCC(F)=C(F)F` registered a melting point of 139 to 141 °C.

For `CCOC(=O)Cc1csc(NC(=O)c2sc3ccc(OC)cc3c2OC(C)C)n1`, the melting point fell in the range of 91 to 92 °C.

On to `CS(=O)(=O)c1ccc(-n2nc(C(F)(F)F)cc2-c2ccc(-c3cscn3)c(Cl)c2)cc1`, for which the melting point was in the range of 128 to 130 °C.

Regarding `CCOc1nc(C(F)(F)F)cc(=O)n1-c1cc(OCCON=C(C)C)c(Br)cc1F`, the melting point is 131 to 132 °C.

`O=C(Cc1ccccc1)NN(C1=NCCS1)c1ccccc1` gave a melting point of 121 to 124 °C.

The compound `CC(C)c1cc(OCCCC(=O)OCc2ccccc2)cc2c1C(=O)N(COc1cc(C(F)(F)F)nn1-c1ccccc1)S2(=O)=O` came in with a melting point of 99 to 101 °C.

`CC(=O)N1CCn2nc(Nc3cc(-c4ccc5c(c4)NC(=O)C5)cn4ccnc34)cc2C1` displayed a melting point of 161 to 165 °C.

Regarding `COC(=O)C1CC2=C(CO1)C(=O)C=CC2=O` (configuration not stated), the melting point was 55 to 58 °C.

The compound `O=C(Nc1cccc(S(=O)(=O)NCc2cccnc2)c1)c1cnn2c(C(F)(F)F)cc(-c3ccc(C(F)(F)F)cc3)nc12` had a melting point of 257 °C.

In the case of `CC(C)(O)C1CCN(c2ccc(C#N)c3ccccc23)CC1`, the melting point fell in the range of 133 to 134 °C.

`CC(C)C(=O)Nc1ccccc1C(F)(F)F` showed a melting point of 114 °C.

In the case of `O=c1oc2c(O)cccc2c(OCCN2CCOCC2)c1-c1ccccc1`, the melting point lay within 190 to 191 °C.

`CCCn1nnn(-c2cc(OC(C)=O)c(Cl)cc2Cl)c1=O`: the melting point is 91 to 92 °C.

In the case of `Cc1ccc(-c2coc3cc(O)c(O)cc3c2=O)cc1`, the melting point was determined as 280 °C.

Turning to `O=C1N(CC2CCCN2)c2ccccc2C12COc1cc3c(cc12)CCO3` (configuration not stated), the melting point is 83 to 86 °C.

In turn, `CC(C)Oc1ccn2nc(-c3ccccc3)c(-c3ccc(=O)n(C(C)C)n3)c2c1` gave a melting point of 162 to 163 °C.

With `O=C1C(CN2CCN(CCO)CC2)CCN1c1ccc(Cl)cc1` (configuration not stated), the melting point was in the range of 130 to 131 °C.

For the compound `BrCCNC(c1ccccc1)(c1ccccc1)c1ccccc1`, the melting point lay in the range of 108 to 109 °C.

For `CC12CCC3C(CCC4CC(=O)CCC43CO[Si](C)(C)C(C)(C)C)C1CCC2=O` (configuration not stated), the melting point is 130 to 132 °C.

In the case of `CCOC(=O)C1=C(C)NC(c2csc(N)n2)=NC1c1ccc(F)cc1Cl` (configuration not stated), the melting point lay in the range of 95 to 110 °C.

`NC(=O)N1C(=O)C(=C(OC(=O)c2ccc(C(=O)OCc3ccccc3)cc2)c2cccs2)c2cc(F)c(Cl)cc21` yielded a melting point of 212 to 218 °C.

`CC(C#CCn1ccnc1)N1CCN(C)C1=O` (configuration not stated) gave a melting point of 89 to 92 °C.

Take `O=C(O)c1cc2cc(OC(F)F)ccc2nc1C(=O)O`: the melting point is 226 °C.

`CCOc1cc2ncc3c(N)nc(-c4cccnc4)cc3c2cc1OCC` registered a melting point of 241 to 245 °C.

`C[C@@H](n1cnc2cc(NCc3ccccc3)ccc2c1=O)[C@](O)(Cn1cncn1)c1ccc(F)cc1F` came in with a melting point of 100 to 107 °C.

Regarding `O=C(O)c1cnc(-c2ccc(Cl)cc2)s1`, the melting point was 233 to 234 °C.

For the compound `COC(=O)c1ccc(CCc2nc(-c3ccccc3)c(C)s2)cc1`, the melting point fell in the range of 52 to 53 °C.

As for `Cc1ccc(C2=CCC(=O)CC2)cc1`, the melting point lay in the range of 72 to 74 °C.

Compound `CCCCCNCCC1CCCC1CCCCCCC(=O)O` (configuration not stated) came in with a melting point of 107 to 108 °C.

Compound `C#CC1(C)OC(=O)Nc2ccc(-c3cccc(Cl)c3)cc21` (configuration not stated) showed a melting point of 185 to 186 °C.

Regarding `CCOc1ncc(Cl)cc1C1OC(=O)NC1=O` (configuration not stated), the melting point fell in the range of 119 to 124 °C.

In the case of `COc1ccc(Sc2cnc(NC(C)=O)s2)cc1`, the melting point lay in the range of 190 to 191 °C.

Turning to `COc1ccc2[nH]c3c(c2c1)C(C(=O)OCc1ccccc1)CCC3` (configuration not stated), the melting point was 81 to 83 °C.

`CC(O)c1ccc(OCCCCl)c(O)c1` (configuration not stated) came in with a melting point of 107 to 109 °C.

`Nc1ccc(-c2noc(-c3cnn4c(C(F)(F)F)cc(-c5ccc(C(F)(F)F)c(F)c5)nc34)n2)cn1` had a melting point of 233 °C.

For `CNCc1cnc(Nc2n[nH]c3ccc(-c4ncccc4Cl)cc23)s1`, the melting point fell in the range of 200 to 201 °C.

In turn, `CP(C)(=O)COc1cc(Cl)c(C=O)c(Cl)c1` showed a melting point of 136 to 139 °C.

Turning to `CCCCCCn1c(=O)c2cn(CC)nc2n(C)c1=O`, the melting point lay within 107 to 108 °C.

On to `CCCCNC(=S)NS(=O)(=O)c1cc2c(cc1OC)OCCC2CNC(=O)c1cc(Cl)ccc1OC` (configuration not stated), for which the melting point amounted to 167 °C.

For the compound `CCOc1ccc(-c2ccc3c(c2)C=C(C(=O)O)CCN3S(C)(=O)=O)cc1F`, the melting point fell in the range of 237 to 239 °C.

The compound `CC(C(=O)O)c1ccc2nc3c(Cl)cc(Cl)cn3c(=O)c2c1` (configuration not stated) yielded a melting point of 241 °C.

`N#Cc1cc2cc(Br)ccc2nc1Cl` displayed a melting point of 228 to 230 °C.

For `CCc1ccc(C2(OC(C)=O)C(=O)c3ccccc3C2=O)c(OC(C)=O)c1`, the melting point lay within 136 to 137 °C.

Turning to `CC(C)(N)C(=O)NCCn1ccc2ncnc(Nc3ccc(Oc4cccc5sncc45)c(Cl)c3)c21`, the melting point is 198 °C.

`Cc1ccc(-c2ccc(C)c(CN3CCN(C(c4ccccc4)c4ccccc4)CC3)c2)cc1`: the melting point came to 177 °C.

`O=C(O)C1CCCN1S(=O)(=O)c1ccc(-c2ccccc2)cc1` (configuration not stated) yielded a melting point of 133 to 135 °C.

Consider `Cc1cccc(-n2nc(C(N)=O)nc2-c2ccccc2)c1`, for which the melting point lay in the range of 142 to 143 °C.

Regarding `Cc1sc(N2CCN(C(=O)OC(C)(C)C)CC2)nc1/C=C/c1cn(-c2ccccc2)nc1O`, the melting point fell in the range of 221 to 223 °C.

The compound `CCCC[C@H](NC(=O)[C@H](CC(C)C)NC(=O)c1c(F)cccc1F)C(=O)CSCc1ccco1` gave a melting point of 116 °C.

As for `CS(=O)(=O)c1ccc(-c2cnn(-c3ccc(F)cc3)c(=O)c2COc2cccc(F)c2)cc1`, the melting point fell in the range of 142 to 144 °C.

On to `CC1CCN(C2=Nc3cc(Br)ccc3N3CCc4cccc2c43)CC1`, for which the melting point lay within 177 to 179 °C.

With `CON(c1ccc([N+](=O)[O-])cc1C#N)S(=O)(=O)c1ccc(C(F)(F)F)cc1`, the melting point lay in the range of 134 to 135 °C.

The compound `Cc1cccc(NC(=O)NC2N=C(c3ccccc3F)c3ccccc3N(Cc3ccsc3)C2=O)c1` (racemic) yielded a melting point of 221 to 223 °C.

Turning to `CNCc1ccc(-c2cc3c4c(ccn4C(=O)CNC3)c2)cc1`, the melting point is 178 to 180 °C.

`Cc1cccc(-c2cc3cnc(N)nc3nc2NC(=O)NC(C)(C)C)c1C` registered a melting point of 326 to 330 °C.

Compound `COC(=O)c1c(C(=O)OC)c(-c2cc(OC)c(OC)c(OC)c2)c2c(OC)c(OC)c(OC)cc2c1O` returned a melting point of 165 to 167 °C.

Compound `Nc1cccc(CN2CCC(NC(=O)NC(=O)c3ccccc3)CC2)c1` registered a melting point of 194 to 195 °C.

For `CCN(CC)CCN1C(=O)Nc2ccncc2C1c1ccccc1` (configuration not stated), the melting point fell in the range of 132 to 134 °C.

Consider `COc1cc(COc2cc(C=O)n(-c3ccccc3)n2)ccc1OCc1nc(-c2ccccc2)oc1C`, for which the melting point is 119 to 120 °C.

As to `CCCC(=O)Nc1cc(Oc2ccccc2)ccc1NC(=NC(=O)OCC)SC`, the melting point amounted to 118 °C.

In turn, `CCOC(=O)C1=C(COCC(O)CCO)NC(C)=C(C(=O)OC)C1c1cccc(Cl)c1Cl` (configuration not stated) registered a melting point of 86 to 89 °C.

In turn, `O=C(O)COc1cc2c(c(Cl)c1Cl)C(=O)C(c1ccccc1)C2` (configuration not stated) displayed a melting point of 181 to 185 °C.

Compound `Oc1cc(OCC(O)COc2ccccc2)ccc1C(=S)c1ccc(-c2ccccc2)cc1` (configuration not stated) returned a melting point of 101 to 102 °C.

`CCCCOc1c(CNC(=O)OC(C)(C)C)n(CC(C)C)c(=O)c2ccc(CO)cc12` came in with a melting point of 153 to 154 °C.

`O=C1Nc2ccccc2C1(O)c1ccc2c(c1)OCO2` (configuration not stated) registered a melting point of 177 to 180 °C.

Take `CCC(O)(CCC(N)=O)c1ccc(Cl)c(Cl)c1` (configuration not stated): the melting point lay in the range of 106 to 107 °C.

Take `Cc1cccc2c1OC[C@H](NC(=O)OC(C)(C)C)C(=O)N2`: the melting point turned out to be 179 °C.

Regarding `CC(=CC(=O)N1CCCC1C(=O)O)C(=O)c1ccc(Br)cc1` (configuration not stated), the melting point was 137 to 144 °C.

Turning to `CCN1CC(=O)N(C)c2cc([N+](=O)[O-])c(OC)cc2C1`, the melting point is 129 to 131 °C.

The compound `CCCN(CCC)C(=O)C(CCC(=O)OC)NC(=O)C(C(=O)OC)=C1SC=CS1` (configuration not stated) came in with a melting point of 115 to 117 °C.

On to `CN(C)c1ccc2[nH]c3c([N+](=O)[O-])ccc(Cl)c3c(=O)c2c1`, for which the melting point was greater than 300 °C.

`CC(C)(C)OC(=O)c1ncn2c1[C@@H]1CCN1C(=O)c1ccccc1-2` gave a melting point of 185 to 187 °C.

Turning to `Cc1cc(/C=C/C(c2cc(Cl)cc(Cl)c2)C(F)(F)F)ccc1C(=O)O` (configuration not stated), the melting point lay within 142 to 143 °C.

`Nc1ccccc1Nc1ccc(I)cc1` had a melting point of 122 to 123 °C.

`COc1ccc2[nH]cc(CC#N)c2c1Cl` returned a melting point of 138 to 139 °C.

In the case of `CC1CC(=O)NN=C1c1ccc(NC(=O)OCc2cccc(Cl)c2)cc1` (configuration not stated), the melting point is 165 to 166 °C.

`CCCCCCCCCCCCCCC[C@@H](O)C(Cl)C(=O)OC` (some centres not stated) yielded a melting point of 39 to 40 °C.

Compound `CC(C)C(NC(=O)OC(C)(C)C)C(=O)NC(C(=O)OCC1OC(n2cc(C=CBr)c(=O)[nH]c2=O)CC1N=[N+]=[N-])C(C)C` (configuration not stated) registered a melting point of 95 to 97 °C.

In turn, `CCOC(=O)Cn1c(C(=O)O)cc2cc(Cl)ccc21` had a melting point of 198 to 200 °C.

Regarding `CCCP(=O)(CCC)COS(=O)(=O)c1c(C)cccc1Cl`, the melting point is 51 to 53 °C.

Compound `COCCn1nnnc1-c1cc(-c2cc(C(F)(F)F)ccc2F)c(O)cc1O` came in with a melting point of 90 to 94 °C.

For the compound `NS(=O)(=O)c1ccc2c(c1)C(=O)c1ccccc1C2=O`, the melting point was 258 to 261 °C.

The values are drawn from a melting point compilation (Tetko et al.; mined from patent text by program, amines drawn as free bases though some values may be those of a salt).
